In ChEMBL document CHEMBL1857833, “Screening and optimization of specific chemical series against human African Trypanosomiasis (HAT)”:
Values after ≈ are worked out from the molar mass of the structure shown. One block for each compound: values may come before it.

Legend:
Trypanosoma brucei [1] = assay: DNDI: Mean survival time in days (MSD) of mice after intraperitoneal injection of Human African Trypanosomiasis (HAT), EATRO 110, in vivo at 1.25 mg/kg/day for 4 days.; assay type: functional, Mus musculus
[2] = DNDI: Cytotoxicity against L929 mouse fibroblasts, CYTO-SP, 24 hour; assay type: toxicity, cell-based; details: mouse, L929 mouse fibroblasts
[3] = DNDI: Lipophilicity measured in Chromatographic hydrophobicity index (CHI) assay, pH 7.4; assay type: physicochemical; details: buffer
MDR1 (ABCB1) [4] = target: T1, MDR1 (ABCB1) (Homo sapiens, UniProt P08183); assay: DNDI: % of compound recovered from apical to basolateral permeability assay in MDCK cells transfected with human MDR1; assay type: ADME, cell-based, Canis lupus familiaris; details: dog
T1 sequence (P08183 whole entry): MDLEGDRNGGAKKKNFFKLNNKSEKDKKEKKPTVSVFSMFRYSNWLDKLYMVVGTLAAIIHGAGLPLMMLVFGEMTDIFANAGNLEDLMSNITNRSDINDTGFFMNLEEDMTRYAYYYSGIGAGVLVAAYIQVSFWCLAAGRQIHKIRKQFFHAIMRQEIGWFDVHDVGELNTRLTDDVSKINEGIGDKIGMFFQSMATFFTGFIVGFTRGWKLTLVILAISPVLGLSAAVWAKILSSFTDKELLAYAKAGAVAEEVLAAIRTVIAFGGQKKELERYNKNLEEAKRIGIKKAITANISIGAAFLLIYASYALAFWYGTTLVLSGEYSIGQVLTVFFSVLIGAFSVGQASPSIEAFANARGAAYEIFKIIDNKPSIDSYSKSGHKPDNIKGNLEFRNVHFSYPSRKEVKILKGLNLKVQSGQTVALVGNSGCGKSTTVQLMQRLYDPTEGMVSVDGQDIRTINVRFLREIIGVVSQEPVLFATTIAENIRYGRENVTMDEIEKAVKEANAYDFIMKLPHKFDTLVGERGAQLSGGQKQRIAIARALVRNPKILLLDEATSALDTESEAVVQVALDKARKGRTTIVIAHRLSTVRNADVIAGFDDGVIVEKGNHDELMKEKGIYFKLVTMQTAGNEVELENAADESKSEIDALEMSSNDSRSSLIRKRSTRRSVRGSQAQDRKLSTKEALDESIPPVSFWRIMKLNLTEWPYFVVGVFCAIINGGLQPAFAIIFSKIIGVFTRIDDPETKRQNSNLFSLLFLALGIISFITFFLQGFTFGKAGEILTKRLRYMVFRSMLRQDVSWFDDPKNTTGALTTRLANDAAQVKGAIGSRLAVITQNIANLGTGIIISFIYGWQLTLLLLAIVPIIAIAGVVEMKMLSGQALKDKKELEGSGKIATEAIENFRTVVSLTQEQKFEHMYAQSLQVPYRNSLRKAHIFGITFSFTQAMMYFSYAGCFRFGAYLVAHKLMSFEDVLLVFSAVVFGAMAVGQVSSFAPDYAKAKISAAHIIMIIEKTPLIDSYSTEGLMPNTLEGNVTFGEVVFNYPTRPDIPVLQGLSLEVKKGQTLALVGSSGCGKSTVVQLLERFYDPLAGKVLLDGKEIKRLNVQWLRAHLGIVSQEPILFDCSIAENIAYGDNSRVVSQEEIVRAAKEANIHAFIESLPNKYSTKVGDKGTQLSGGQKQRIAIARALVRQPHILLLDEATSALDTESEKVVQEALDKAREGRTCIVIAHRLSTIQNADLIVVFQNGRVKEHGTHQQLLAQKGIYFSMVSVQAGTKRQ

MDR1 (ABCB1) [5] = target: T1, MDR1 (ABCB1); assay: (§1) DNDI: Efflux ratio for permeability from basolateral to apical side to apical to basolateral side of MDCK cells transfected with human MDR1; assay type: ADME, cell-based, Canis lupus familiaris; details: dog, read-out: B-A/A-B
Trypanosoma brucei [6] = assay: DNDI: Mean survival time in days (MSD) of mice after intraperitoneal injection of Human African Trypanosomiasis (HAT), EATRO 110, in vivo at 20 mg/kg/day for 4 days.; assay type: functional, Mus musculus
Trypanosoma brucei [7] = assay: DNDI: Mean survival time in days (MSD) of mice after intraperitoneal injection of Human African Trypanosomiasis (HAT), EATRO 110, in vivo at 12.5 mg/kg/day for 4 days.; assay type: functional, Mus musculus
MDR1 (ABCB1) [8] = target: T1, MDR1 (ABCB1); assay: DNDI: Apparent permeability from apical to basolateral side of the MDCK cell transfected with human MDR1; assay type: ADME, cell-based, Canis lupus familiaris; details: dog
Trypanosoma brucei [9] = assay: DNDI: Inhibition of Human African Trypanosomiasis, SBRI 427, in vitro; assay type: functional, organism-based
MDR1 (ABCB1) [10] = target: T1, MDR1 (ABCB1); assay: DNDI: % of compound recovered from basolateral to apical permeability assay in MDCK cells transfected with human MDR1; assay type: ADME, cell-based, Canis lupus familiaris; details: dog
Trypanosoma brucei [11] = assay: DNDI: Mean survival time in days (MSD) of mice after intraperitoneal injection of Human African Trypanosomiasis (HAT), EATRO 110, at 0.5 mg/kg/day for 4 days.; assay type: functional, Mus musculus
Trypanosoma brucei [12] = assay: DNDI: Mean survival time in days (MSD) of mice after intraperitoneal injection of Human African Trypanosomiasis (HAT), EATRO 110, in vivo at 2.5 mg/kg/day for 4 days.; assay type: functional, Mus musculus
Trypanosoma brucei [13] = assay: DNDI: Mean survival time in days (MSD) of mice after intraperitoneal injection of Human African Trypanosomiasis (HAT), EATRO 110, in vivo at 5 mg/kg/day for 4 days.; assay type: functional, Mus musculus
[14] = DNDI: Solubility in phosphate buffered saline at pH7.4 measured by optical density (turbidimetry) at room temperature (OD-RT); assay type: physicochemical; details: pH 7.4
[15] = DNDI: in vitro intrinsic clearance in mouse liver microsomes at a concentration of 10uM; assay type: ADME, Microsome; details: read-out: CLint in vitro
[16] = DNDI: half life in mouse liver microsomes at a concentration of 10uM; assay type: ADME, Microsome
MDR1 (ABCB1) [17] = target: T1, MDR1 (ABCB1); assay: DNDI: Apparent permeability from basolateral to apical side of the MDCK cell transfected with human MDR1 after 60 mins at a concentration of 3uM; assay type: ADME, cell-based, Canis lupus familiaris; details: dog
Trypanosoma brucei [18] = assay: DNDI: Inhibition of Human African Trypanosomiasis, EATRO 110, in vitro; assay type: functional, organism-based
in vitro [19] = details: mouse, liver microsomes, t (1 / 2)
Description: DNDI: half life in mouse liver microsomes at a concentration of 1uM

in vitro [20] = details: human, liver microsomes, t (1 / 2)
Description: (§3) DNDI: half life in human liver microsomes at a concentration of 1uM

in vitro [21] = details: mouse, liver microsomes
Description: (§4) DNDI: in vitro intrinsic clearance in mouse liver microsomes at a concentration of 1uM

[22] = human, microsomes, 1 µM
Description: (§5) DNDI: in vitro intrinsic clearance in human liver microsomes at a concentration of 1uM

[23] = DNDI: Solubility in phosphate buffered saline at pH7.4 measured by nephelometry at room temperature (NEPH-RT); assay type: physicochemical; details: pH 7.4
[24] = human, microsomes, 1 µM; remark: listed apart in the source
Description: as §3

in vitro [25] = details: human, liver microsomes, CLint in vitro
Description: as §5

[26] = mouse, microsomes, 1 µM
Description: as §4

[27] = (§2) DNDI: Cytotoxicity against L929 mouse fibroblasts, 72 hour.; assay type: toxicity, cell-based; details: mouse, L929 mouse fibroblasts
Trypanosoma brucei [28] = assay: DNDI: Mean survival time in days (MSD) of mice after intraperitoneal injection of Human African Trypanosomiasis (HAT), STIB 795, in vivo at 50 mg/kg/day for 4 days.; assay type: functional, Mus musculus
[29] = DNDI: % of compound remaining in rat S9 microsomes at a concentration of 1uM; assay type: ADME, subcellular, Liver, S9 fraction
Trypanosoma brucei [30] = assay: DNDI: Mean survival time in days (MSD) of mice after intraperitoneal injection of Human African Trypanosomiasis (HAT), EATRO 110, in vivo at 50 mg/kg/day for 4 days.; assay type: functional, Mus musculus
[31] = DNDI: % of compound remaining in mouse S9 microsomes at a concentration of 1uM after 60 mins; assay type: ADME, subcellular, Liver, S9 fraction
MDR1 (ABCB1) [32] = target: T1, MDR1 (ABCB1); assay: DNDI: % of compound recovered from apical to basolateral permeability assay in MDCK cells transfected with human MDR1 after 60 mins at a concentration of 3uM; assay type: ADME, cell-based, Canis lupus familiaris; details: dog
[33] = target: T2, ATP-dependent translocase ABCB1 (Homo sapiens, UniProt P08183); assay: DNDI: Apparent permeability from basolateral to apical side of the MDCK cell transfected with human MDR1after 60 mins at a concentration of 3uM; assay type: ADME, cell-based, Canis lupus familiaris; details: dog, 1 h
T2 sequence (P08183 whole entry): as above

[34] = target: T2, ATP-dependent translocase ABCB1; assay: DNDI: Apparent permeability from apical to basolateral side of the MDCK cell transfected with human MDR1after 60 mins at a concentration of 3uM; assay type: ADME, cell-based, Canis lupus familiaris; details: dog, mdck, 1 h, 3 µM
[35] = target: T2, ATP-dependent translocase ABCB1; assay: as §1; assay type: ADME, cell-based, Canis lupus familiaris; details: dog, mdck
MDR1 (ABCB1) [36] = target: T1, MDR1 (ABCB1); assay: DNDI: % of compound recovered from basolateral to apical permeability assay in MDCK cells transfected with human MDR1 after 60 mins at a concentration of 3uM; assay type: ADME, cell-based, Canis lupus familiaris; details: dog
L929 = assay: as §2; assay type: toxicity, cell-based; details: l929
[37] = Trypanosoma brucei, SBRI 427, read-out: IC50

SMILES: O/N=C(/NC1CCCCC1)c1cccnc1Oc1ccccc1Cl
MSD (Trypanosoma brucei [1]): 4 days | IC50 at 24 h [2]: > 50 µg/mL | chromatographic logD [3]: 4.52 | recovery (MDR1 (ABCB1) [4]): 58% | efflux ratio (MDR1 (ABCB1) [5]): 1.2 | MSD (Trypanosoma brucei [6]): 4 days | MSD (Trypanosoma brucei [7]): 4 days | Papp A→B (MDR1 (ABCB1) [8]): 30.2 ×10⁻⁶ cm/s | IC50 (Trypanosoma brucei [9]; [37]): 0.95 µg/mL (≈ 2.75 µM) | recovery (MDR1 (ABCB1) [10]): 67% | MSD (Trypanosoma brucei [11]): 4 days | MSD (Trypanosoma brucei [12]): 4 days | MSD (Trypanosoma brucei [13]): 4 days | solubility kinetic [14]: 4 µM (≈ 1.38 µg/mL) | microsomal CLint at 10 µM [15]: 211 µL/min/mg | half-life at 10 µM [16]: 14 min | Papp B→A at 1 h, 3 µM (MDR1 (ABCB1) [17]): 34.8 ×10⁻⁶ cm/s | IC50 (Trypanosoma brucei [18]): 1.41 µg/mL (≈ 4.08 µM)

half-life at 1 µM (in vitro [19]): 4 min | chromatographic logD [3]: 2.93 | half-life at 1 µM (in vitro [20]): 13 min | microsomal CLint at 1 µM (in vitro [21]): 235 µL/min/mg | IC50 (Trypanosoma brucei [9]; [37]): 4.47 µg/mL (≈ 17 µM) | CLint in vitro [22]: 75 µL/min/mg | solubility kinetic [23]: 13 µM (≈ 3.41 µg/mL) | t (1 / 2) [24]: 11 min | microsomal CLint at 1 µM (in vitro [25]): 66 µL/min/mg | CLint in vitro [26]: 224 µL/min/mg
SMILES: COc1ccc(/C(CNC2CCCCC2)=N/O)cc1
IC50 at 24 h [2]: > 50 µg/mL

SMILES: CCCCc1ccc(-c2nc(CNCCC3CCCN3C)co2)cc1 (stereo not drawn)
half-life at 1 µM (in vitro [19]): 37 min | chromatographic logD [3]: 4.69 | IC50 at 72 h [27]: 4.21 µg/mL (≈ 12.3 µM) | MSD (Trypanosoma brucei [28]): 7 days | remaining at 1 µM [29]: 3.27% | MSD (Trypanosoma brucei [30]): 10 days | IC50 (Trypanosoma brucei [9]): 0.21 µg/mL (≈ 0.615 µM) | IC50 (Trypanosoma brucei [9]; [37]): 0.19 µg/mL (≈ 0.556 µM) | solubility kinetic [23]: 100 µM (≈ 34.1 µg/mL) | remaining at 1 h, 1 µM [31]: 57.4% | CLint in vitro [26]: 23 µL/min/mg

recovery at 1 h, 3 µM (MDR1 (ABCB1) [32]): 77.5% | Papp [33]: 21.11 ×10⁻⁶ cm/s | chromatographic logD [3]: 4.85 | Papp [34]: 11.62 ×10⁻⁶ cm/s | Calculated Ratio [35]: 0.45 | recovery at 1 h, 3 µM (MDR1 (ABCB1) [36]): 110% | IC50 (Trypanosoma brucei [9]; [37]): 1.28 µg/mL (≈ 3.51 µM) | solubility kinetic [23]: 100 µM (≈ 36.4 µg/mL)
SMILES: CN(C)CCNc1nc(Oc2cccc3ccccc23)c2sccc2n1
IC50 at 72 h [27]: 3.48 µg/mL (≈ 9.55 µM)

SMILES: CN1CCCC1CCNCc1coc(-c2ccc(OC3CCCC3)cc2)n1 (stereo not drawn)
IC50 (L929): 1.42 µg/mL (≈ 3.84 µM) | IC50 at 72 h [27]: 1.33 µg/mL (≈ 3.6 µM) | MSD (Trypanosoma brucei [30]): <1 days | IC50 (Trypanosoma brucei [9]; [37]): 0.22 µg/mL (≈ 0.595 µM)
